# System: MSCs
# Assay: Whole genome expression analysis (Illumina microarray) of treated MSCs
# Type: cell-based, Human
# Method: MSCs were seeded in T25 flasks at 5000 cells/cm^2 and allowed to attach overnight in proliferation medium. […] After 48 hours, RNA was isolated as described above. From 500 ng of RNA, cRNA was synthesized using the Illumina TotalPrep RNA amplification Kit (Ambion), according to the manufacturer's protocol and the quality of RNA and cRNA was verified on a Bioanalyzer 2100 (Agilent). Microarrays were performed using Illumina HT-12 v4 expression Beadchips, according to the manufacturer's protocol. Briefly, 750 ng of cRNA was hybridized on the array overnight after which the array was washed and blocked. Then, by addition of streptavidin Cy-3 a fluorescent signal was developed. Arrays were scanned on an Illumina iScan reader and raw intensity values were background corrected in GenomeStudio (Illumina). Further data processing and statistical testing were performed with R and Bioconductor statistical software (www.bioconductor.org), using package lumi. Raw intensity values were transformed using variance stabilization and a quantile normalization was performed. A linear modelling approach with empirical Bayesian methods, as implemented in Limma package (54), was applied for differential expression analysis of the resulting probe-level expression values. A gene list, containing only those genes with an absolute 1.5-fold change between different treatments, was uploaded to Ingenuity Pathway Analysis (IPA) software and used for core analysis. Pathways or networks with a p-value of 0.05 were considered statistically significant.
smiles,measurement,setting,value
"CC(=O)N(O)CCCCCNC(=O)CCC(=O)N(O)CCCCCNC(=O)CCC(=O)N(O)CCCCCN [DFO, reference compound]",interleukin-8 (Il-8) gene expression,"MSCs treated for two days, 150 µM DFO or 200 µM PHE",did not affect this gene at all
same,"expression of HRE-containing genes (metabolism, cell growth and survival, endothelial genes)","MSCs treated for two days, 150 µM DFO or 200 µM PHE, relative to basic medium",increased expression
same,logFC(D142_ DFO - D142_BAS) NTN4,"ProbeID ILMN 2113490, DFO versus Bas","2,23"
same,logFC(D142_ DFO - D142_BAS) HIST1H2BD,"ProbeID ILMN_1651496, DFO versus Bas","3,33"
same,logFC(D142_ DFO - D142_BAS) PFKFB4,"ProbeID ILMN_1653292, DFO versus Bas","3,53"
same,logFC(D142_ DFO - D142_BAS) FZD2,"ProbeID ILMN_1653711, DFO versus Bas","-2,10"
same,logFC(D142_ DFO - D142_BAS),"ProbeID ILMN_1655796, DFO versus Bas","2,46"
same,logFC(D142_ DFO - D142_BAS) PLAU,"ProbeID ILMN_1656057, DFO versus Bas","-2,69"
same,logFC(D142_ DFO - D142_BAS) C1orf198,"ProbeID ILMN_1657683, DFO versus Bas","-2,30"
same,logFC(D142_ DFO - D142_BAS) KRTAP2-1,"ProbeID ILMN_1658448, DFO versus Bas","2,71"
same,logFC(D142_ DFO - D142_BAS) SLC2A1,"ProbeID ILMN_1659027, DFO versus Bas","3,46"
same,logFC(D142_ DFO - D142_BAS) HIST2H2AA3,"ProbeID ILMN_1659047, DFO versus Bas","2,07"
same,logFC(D142_ DFO - D142_BAS) C7orf68,"ProbeID ILMN_1659990, DFO versus Bas","3,04"
same,logFC(D142_ DFO - D142_BAS) LOC728285,"ProbeID ILMN_1660067, DFO versus Bas","2,89"
same,logFC(D142_ DFO - D142_BAS) PFKFB3,"ProbeID ILMN_1660847, DFO versus Bas","2,48"
same,logFC(D142_ DFO - D142_BAS) DDIT4,"ProbeID ILMN_1661599, DFO versus Bas","4,37"
same,logFC(D142_ DFO - D142_BAS) CDC20,"ProbeID ILMN_1663390, DFO versus Bas","-3,40"
same,logFC(D142_ DFO - D142_BAS) MGC87042,"ProbeID ILMN_1663575, DFO versus Bas","-2,17"
same,logFC(D142_ DFO - D142_BAS) PPP1R14C,"ProbeID ILMN_1664855, DFO versus Bas","2,96"
same,logFC(D142_ DFO - D142_BAS) ERRFI1,"ProbeID ILMN_1665510, DFO versus Bas","2,53"
same,logFC(D142_ DFO - D142_BAS) C1orf24,"ProbeID ILMN_1667966, DFO versus Bas","2,70"
same,logFC(D142_ DFO - D142_BAS) PPM1D,"ProbeID ILMN_1670875, DFO versus Bas","2,06"
same,logFC(D142_ DFO - D142_BAS) ACTA2,"ProbeID ILMN_1671703, DFO versus Bas","-2,61"
same,logFC(D142_ DFO - D142_BAS) JAM2,"ProbeID ILMN_1672350, DFO versus Bas","2,05"
same,logFC(D142_ DFO - D142_BAS) TFRC,"ProbeID ILMN_1674243, DFO versus Bas","2,31"
same,logFC(D142_ DFO - D142_BAS) MTHFD2,"ProbeID ILMN_1674706, DFO versus Bas","2,79"
same,logFC(D142_ DFO - D142_BAS) MT3,"ProbeID ILMN_1675947, DFO versus Bas","3,00"
same,logFC(D142_ DFO - D142_BAS) DDIT3,"ProbeID ILMN_1676984, DFO versus Bas","3,92"
same,logFC(D142_ DFO - D142_BAS) CHN1,"ProbeID ILMN_1678493, DFO versus Bas","-2,71"
same,logFC(D142_ DFO - D142_BAS) SLC3A2,"ProbeID ILMN_1679041, DFO versus Bas","2,26"
same,logFC(D142_ DFO - D142_BAS) CLK1,"ProbeID ILMN_1679727, DFO versus Bas","2,03"
same,logFC(D142_ DFO - D142_BAS) MAFF,"ProbeID ILMN_1680139, DFO versus Bas","2,48"
same,logFC(D142_ DFO - D142_BAS) GPRC5A,"ProbeID ILMN_1682599, DFO versus Bas","2,35"
same,logFC(D142_ DFO - D142_BAS) IER3,"ProbeID ILMN_1682717, DFO versus Bas","2,14"
same,logFC(D142_ DFO - D142_BAS) RRAD,"ProbeID ILMN_1683179, DFO versus Bas","2,83"
same,logFC(D142_ DFO - D142_BAS) GPT2,"ProbeID ILMN_1684158, DFO versus Bas","2,16"
same,logFC(D142_ DFO - D142_BAS) INHBB,"ProbeID ILMN_1685714, DFO versus Bas","2,06"
same,logFC(D142_ DFO - D142_BAS) TOP2A,"ProbeID ILMN_1686097, DFO versus Bas","-2,19"
same,logFC(D142_ DFO - D142_BAS) COLEC12,"ProbeID ILMN_1689088, DFO versus Bas","-3,20"
same,logFC(D142_ DFO - D142_BAS) CXCL12,"ProbeID ILMN_1689111, DFO versus Bas","-2,92"
same,logFC(D142_ DFO - D142_BAS) PDLIM7,"ProbeID ILMN_1690125, DFO versus Bas","-2,43"
same,logFC(D142_ DFO - D142_BAS) CRABP2,"ProbeID ILMN_1690170, DFO versus Bas","-2,06"
same,logFC(D142_ DFO - D142_BAS) STC2,"ProbeID ILMN_1691884, DFO versus Bas","3,54"
same,logFC(D142_ DFO - D142_BAS) PSAT1,"ProbeID ILMN_1692938, DFO versus Bas","3,93"
same,logFC(D142_ DFO - D142_BAS) P4HA1,"ProbeID ILMN_1693334, DFO versus Bas","3,24"
same,logFC(D142_ DFO - D142_BAS) GADD45A,"ProbeID ILMN_1694075, DFO versus Bas","2,63"
same,logFC(D142_ DFO - D142_BAS) KIF20A,"ProbeID ILMN_1695658, DFO versus Bas","-2,76"
same,logFC(D142_ DFO - D142_BAS) DDIT4L,"ProbeID ILMN_1696537, DFO versus Bas","-2,14"
same,logFC(D142_ DFO - D142_BAS) TNFRSF10B,"ProbeID ILMN_1699265, DFO versus Bas","2,74"
